Measurements reported in patent US20230047825A1, “ANTIMICROBIAL PEPTIDES” (priority 2019, published 2023).
Values after ≈ are worked out from the molar mass of the structure shown. Where two headings read alike, the source gives them in different places. Where a SMILES comes first, the peptide text is derived from it.

Columns and labels:
[1] = tested on: Klebsiella pneumoniae NCTC 13368; type: cell-based; settings: in µg/mL
Klebsiella pneumoniae M6 = type: cell-based
[2] = tested on: Acinetobacter baumannii AYE; type: cell-based; settings: AYE
[3] = tested on: Acinetobacter baumannii ATCC 17978; type: cell-based; settings: in µg/mL; for MIC, Stability in serum (MH): Ab17978
[4] = tested on: Pseudomonas aeruginosa PA01; test: Antibacterial activity assay (broth microdilution MIC); type: cell-based
[5] = tested on: Pseudomonas aeruginosa NCTC 13437; test: as above; type: cell-based; settings: PA13437, in µg/mL
[6] = tested on: Escherichia coli NCTC 12923; type: cell-based; settings: EC12923
[7] = tested on: MS Staphylococcus aureus ATCC 9144; type: cell-based; settings: MSSA9144
[8] = tested on: EMR Staphylococcus aureus-15 (EMRSA-15); type: cell-based
[9] = tested on: EMR Staphylococcus aureus-16 (EMRSA-16); type: cell-based; settings: EMRSA16
[10] = tested on: VS Enterococcus faecalis NCTC 775; test: Antibacterial activity assay (broth microdilution MIC); type: cell-based
[11] = tested on: VR Enterococcus faecium NCTC 12204; test: as above; type: cell-based; settings: VRE12204, in µg/mL
HEK293 = test: Cytotoxicity assay (XTT); type: cell-based, human
Experimental: (§1) Cytotoxicity assay. HeLa and HEK293 cell lines were purchased from ECACC and cultured in Eagle's Minimum Essential Media (EMEM) containing glutamine, supplemented with 10% FBS and 1× non-essential amino acids (NEAA) at 37° C., 10% CO2. Cytotoxicity was measured by incubating starter cultures of cells for 24 hours in a 96 well plate, gently removing the supernatant and replacing it with dilutions of peptides and controls, incubating for a further 24 hours and then staining of the cells with the second generation tetrazolium dye, XTT. […]

HeLa = test: Cytotoxicity assay (XTT); type: cell-based, human; design: Toxicity HeLa: unit not given beside the values
Experimental: as §1

human red blood cells = test: Haemolysis assay; settings: red cells of human, 1 h
Experimental: Haemolysis assay. Haemolysis was tested by incubating titrations of AMPs in PBS with freshly collected human red blood cells for 1 hour at 37 C. Control wells were treated with 0.1% Triton-X-100 to ensure complete lysis, or PBS-only to represent no lysis. Samples were spun down to remove non-lysed cells and the OD^550 of the supernatant was measured using a Clariostar plate reader. The percentage of haemolysis was calculated as % haemolysis=(AP−AB)/(AC−AB)×100, where AP is the absorbance value for a known peptide concentration, AC is the absorbance of the 0.1% Triton-X-100 control, AB is the absorbance of the PBS control. Data presented are averages and standard error from three biological replicate experiments.
Methods: The natural AMP (termed AMP1) was modified to produce synthetic variants, AMPs 1a, 2a, 2b, 3a and 3b. Minimum inhibitory concentrations (MICs) were determined using the microbroth dilution assay with Mueller Hinton broth (MHB) or RPMI (with 5% FBS) and stability in serum was tested by conducting MICs in MHB containing 10% FBS. Synergy experiments were performed following a checkerboard protocol. Cytotoxicity was tested against HEK293 and HeLa immortalised human cell-lines using the XTT viability stain and by quantifying haemolysis of human red blood cells. Patch clamp analysis was performed using the Port-a-Patch® automated patch-clamp system on DPhPE/DPhPG (model for a Gram-negative plasma membrane) or DPhPG (Gram-positive) model membranes challenged with peptide. The murine lung infection model was performed using the agar bead model with Staphylococcus aureus strain NCTC 13616 (EMRSA-15).

[12] = medium and unit not given, in µg/mL
[13] = untitled table, medium/unit not given, values match RPMI of Table 2, in µg/mL
[14] = untitled table, medium/unit inferred, values match RPMI of Table 2
[15] = untitled table, medium/unit not given, values match RPMI of Table 2

Question: What does the source list for `CC(C)C[C@@H](NC(=O)[C@@H](Cc1ccc(O)cc1)NC(=O)[C@@H](Cc1c[nH]cn1)NC(=O)[C@H](NC(=O)[C@@H](CC(C)C)NC(=O)[C@@H](C)NC(=O)[C@@H](C)NC(=O)[C@@H](CCCCN)NC(=O)CNC(=O)[C@H](NC(=O)[C@@H](Cc1c[nH]cn1)NC(=O)[C@@H](CCCCN)NC(=O)CNC(=O)[C@H](NC(=O)[C@@H](Cc1c[nH]cn1)NC(=O)[C@@H](C)NC(=O)[C@@H](C)NC(=O)[C@@H](CCCCN)NC(=O)[C@@H](CCCCN)NC(=O)[C@@H](Cc1ccccc1)NC(=O)[C@@H](Cc1ccccc1)NC(=O)[C@@H](CO)NC(=O)CNC(=O)[C@@H](Cc1c[nH]c2ccccc12)NC(=O)CN)C(C)C)C(C)C)[C@H](C)O)C(N)=O` [D-pleurocidin] (HELM PEPTIDE1{G.[dW].G.[dS].[dF].[dF].[dK].[dK].[dA].[dA].[dH].[dV].G.[dK].[dH].[dV].G.[dK].[dA].[dA].[dL].[dT].[dH].[dY].[dL].[am]}$$$$V2.0; N-terminus assumed)?
Answer: MIC, Stability in serum (MH) ([1]; KP13368, No serum): 4; MIC, Stability in serum (MH) ([1]; KP13368, Serum (10% fetal bovine serum)): 4; MIC on initial panels ([1]; KP13368, medium and unit not given): 4; MIC ([1]; KP13368, untitled table, medium/unit not given, values match RPMI of Table 2): 8-16; MIC ([1]; Klebsiella pneumoniae KP13368, (MH)): 4; MIC ([1]; Klebsiella pneumoniae KP13368, (RPMI)): 8-16; MIC (Klebsiella pneumoniae M6; (MH), in µg/mL): 4; MIC (Klebsiella pneumoniae M6; (RPMI), in µg/mL): 4-8; MIC, Stability in serum (MH) (Klebsiella pneumoniae M6; No serum): 4 µg/mL (≈ 1.48 µM); MIC, Stability in serum (MH) (Klebsiella pneumoniae M6; Serum (10% fetal bovine serum)): 4 µg/mL (≈ 1.48 µM); MIC on initial panels (Klebsiella pneumoniae M6; [12]): 4; MIC (Klebsiella pneumoniae M6; [13]): 4-8; MIC ([2]; (MH), in µg/mL): 1; MIC ([2]; (RPMI), in µg/mL): 2; MIC, Stability in serum (MH) ([2]; No serum): 2 µg/mL (≈ 0.738 µM); MIC, Stability in serum (MH) ([2]; Serum (10% fetal bovine serum)): 2 µg/mL (≈ 0.738 µM); MIC on initial panels [2, 12]: 1; MIC [2, 13]: 2; MIC ([3]; AB17978, (MH)): 1; MIC ([3]; AB17978, (RPMI)): 8; MIC on initial panels ([3]; AB17978, medium and unit not given): 1; MIC ([3]; AB17978, untitled table, medium/unit not given, values match RPMI of Table 2): 8; MIC, Stability in serum (MH) ([3]; No serum): 1; MIC, Stability in serum (MH) ([3]; Serum (10% fetal bovine serum)): 0.5; MIC ([4]; (MH)): 2 µg/mL (≈ 0.738 µM); MIC ([4]; (RPMI)): 16 µg/mL (≈ 5.9 µM); MIC, Stability in serum (MH) ([4]; No serum, in µg/mL): 2; MIC, Stability in serum (MH) ([4]; Serum (10% fetal bovine serum), in µg/mL): 4; MIC on initial panels [4, 12]: 2; MIC [4, 14]: 16 µg/mL (≈ 5.9 µM); MIC ([5]; (MH)): 8; MIC ([5]; (RPMI)): 16-32; MIC, Stability in serum (MH) ([5]; No serum): 8; MIC, Stability in serum (MH) ([5]; Serum (10% fetal bovine serum)): 16; MIC on initial panels ([5]; medium and unit not given): 8; MIC [5, 15]: 16-32; MIC ([6]; (MH), in µg/mL): 1; MIC ([6]; (RPMI), in µg/mL): 2-4; MIC, Stability in serum (MH) ([6]; No serum): 1 µg/mL (≈ 0.369 µM); MIC, Stability in serum (MH) ([6]; Serum (10% fetal bovine serum)): 0.5 µg/mL (≈ 0.184 µM); MIC on initial panels [6, 12]: 1; MIC [6, 13]: 2-4; MIC on initial panels ([7]; medium and unit inferred): 2 µg/mL (≈ 0.738 µM); MIC [7, 13]: 0.5; MIC, Peptide concentration ([8]; EMR -15 (EMRSA-15)): 1 µg/mL (≈ 0.369 µM); MIC on initial panels ([8]; EMRSA15, medium and unit inferred): 16 µg/mL (≈ 5.9 µM); MIC ([8]; EMRSA15, untitled table, medium/unit inferred, values match RPMI of Table 2): 1 µg/mL (≈ 0.369 µM); MIC, Peptide concentration ([8]; Mueller-Hinton broth): 16 µg/mL (≈ 5.9 µM); MIC on initial panels [9, 12]: 16; MIC [9, 14]: 1 µg/mL (≈ 0.369 µM); MIC, Peptide concentration ([10]; Mueller-Hinton broth): 32 (NG) μg/ml; MIC on initial panels ([10]; VSE775, medium and unit not given, in µg/mL): 32; MIC on initial panels ([11]; medium and unit not given): 16; MIC [11, 15]: 4; Toxicity HEK293 (HEK293; unit not given): 61.4 ± 3.9; Toxicity HEK293 (EC50), Peptide concentration (HEK293; value printed in parentheses): (61.4 ± 3.9) μg/ml; Toxicity HeLa (HeLa; unit not given): 47.1 ± 2.1; Toxicity HeLa (EC50), Peptide concentration (HeLa; value printed in parentheses): (47.1 ± 2.1) μg/ml; Toxicity HC50, Peptide concentration (human red blood cells): >400 µg/mL
